Where two headings read alike, the source gives them in different places.
What was measured:
B1-AR = biological target: T1, B1-AR (Homo sapiens, UniProt P08588); experiment: cAMP Gs dynamic HTRF assay, cells expressing beta-adrenergic receptor (CHO-K1), B1-AR; type: cell-based; details: for EC50: cAMP HTRF, read-out: pEC50 [B1-AR] (converted); for Emax: relative to full agonist isoproterenol, read-out: Emax (% iso) (%) [B1-AR]
T1 construct: expressed in transfected cells; host or cells: CHO-K1
Procedure: (§1) cAMP homogeneous time-resolved fluorescence (HTRF): experimental methods. Compound efficacy is determined using the cAMP Gs dynamic HTRF assay (Cisbio, catalog #62AM4PEC) largely following the manufacturer's instructions, also detailed below.
(§2) Standard serial dilution curves are 10-point, 5-fold dilutions starting from a highest concentration of 10 μM. Controls present on every assay plate are 0.1% DMSO (vehicle control), 1 μM isoproterenol (full beta-adrenergic agonist control) and […] xamoterol (partial beta-adrenergic agonist control). […] Assay plates are centrifuged at 500×g for 10 seconds. Compounds and IBMX are prepared at 2× final dose to compensate for addition of cells.
(§3) Cell preparation: 1× stimulation buffer, washing PBS (Dulbecco's phosphate-buffered saline, − Mg − Ca; Caisson Labs, catalog #PBL01), assay PBS (Dulbecco's phosphate-buffered saline, + Mg, + Ca; Caisson Labs, catalog #PBL02) and Versene (0.02% EDTA disodium salt solution in PBS without calcium or magnesium; Caisson Labs, catalog #EDL01) are pre-warmed to 37° C. Cells expressing beta-adrenergic receptor were washed in washing PBS to remove growth medium and then released from the surface by incubating with Versene for 5-10 minutes at 37° C. Cells are harvested using assay PBS, counted manually by hemocytometer or by an automated cell counter, pelleted by centrifugation (200×g, 5 minutes) and resuspended in 37° C. 1× stimulation buffer to a final density of 1.5×10^6 cells/mL. 5 μL of the suspended cell solution (7500 cell total) are added to all wells of the 384 well assay plate, the assay plate was covered with an Axygen® plate seal (Corning PCR-SP) and incubated in a humidified 37° C. environment supplemented with 5% CO2 for 30 minutes.
(§4) HTRF reagent addition, reading and data analysis: After 30 minutes of cell stimulation with test compound, the assay plates are centrifuged at 500×g for 10 seconds, and incubation was stopped with the addition of 5 μL cAMP-D2 acceptor, diluted 1:21 in detection and lysis buffer 2 (Cisbio 62CL2FDF) was added to all cells. Subsequently, 5 μL Anti-cAMP-Eu Donor, diluted 1:21 in detection and lysis buffer 2, was added to cells. Plates were sealed and reactions gently ‘vortexed’ at 900 rpm on a Heidolph Titramax 1000 for at least 30 minutes at room temperature. Plates are centrifuged again at 500×g for 10 seconds, and HTRF was measured using a Tecan Spark plate reader at 50 flashes per well. […] Potency estimates (EC50 and pEC50) are derived from the four-parameter nonlinear regression of the concentration-effect curve and an estimate of relative efficacy is determined by comparing the magnitude of the test compound HTRF signal window (min−max dose) with the signal window of the full agonist control, isoproterenol.

B2-AR = biological target: T2, B2-AR (Homo sapiens, UniProt P07550); experiment: cAMP Gs dynamic HTRF assay, cells expressing beta-adrenergic receptor (CHO-K1), B2-AR; type: cell-based; details: for EC50: cAMP HTRF, read-out: pEC50 [B2-AR] (converted); for Emax: relative to full agonist isoproterenol, read-out: Emax (% iso) (%) [B2-AR]
T2 construct: expressed in transfected cells; host or cells: CHO-K1
Procedure: as §1, §2, §3, §4

T1 sequence (P08588 whole entry, species assumed): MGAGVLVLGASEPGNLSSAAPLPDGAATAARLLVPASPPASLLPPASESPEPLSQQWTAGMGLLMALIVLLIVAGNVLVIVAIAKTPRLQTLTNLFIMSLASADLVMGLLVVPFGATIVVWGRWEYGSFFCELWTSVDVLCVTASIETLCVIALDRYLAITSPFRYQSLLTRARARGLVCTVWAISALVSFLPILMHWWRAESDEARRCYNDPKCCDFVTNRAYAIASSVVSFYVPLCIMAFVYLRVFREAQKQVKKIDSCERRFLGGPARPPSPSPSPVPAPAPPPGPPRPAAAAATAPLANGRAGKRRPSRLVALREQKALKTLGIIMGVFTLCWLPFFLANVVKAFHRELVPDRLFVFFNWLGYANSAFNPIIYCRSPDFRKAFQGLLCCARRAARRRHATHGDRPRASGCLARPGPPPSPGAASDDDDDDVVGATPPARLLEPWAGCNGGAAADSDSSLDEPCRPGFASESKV
T2 sequence (P07550 whole entry, species assumed): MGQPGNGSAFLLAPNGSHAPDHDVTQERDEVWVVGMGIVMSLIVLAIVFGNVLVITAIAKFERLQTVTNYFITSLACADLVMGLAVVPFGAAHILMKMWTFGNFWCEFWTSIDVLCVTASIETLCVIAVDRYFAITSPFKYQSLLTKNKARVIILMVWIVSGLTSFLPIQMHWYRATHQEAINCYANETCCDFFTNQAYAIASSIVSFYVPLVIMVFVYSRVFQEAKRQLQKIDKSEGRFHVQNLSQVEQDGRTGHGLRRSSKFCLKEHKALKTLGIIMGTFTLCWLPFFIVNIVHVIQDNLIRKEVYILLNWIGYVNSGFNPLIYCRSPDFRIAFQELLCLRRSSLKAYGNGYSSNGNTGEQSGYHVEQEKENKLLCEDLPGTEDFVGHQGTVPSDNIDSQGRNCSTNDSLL

Row | SMILES | EC50 (B1-AR) [µM] | Emax (B1-AR) [%] | EC50 (B2-AR; CHO-K1 cells) [µM] | Emax (B2-AR; CHO-K1 cells) [%] | Emax (B2-AR; CHO-K1, CHO-K1 cells) [%]
1 | Cn1c(=O)[nH]c2cccc([C@@H](O)CNC(C)(C)C)c21 [I-93] | > 1 | 70 to 90 | > 1 | > 90 | –
2 | CC(C)(C)NC[C@H](O)c1cccc2[nH]c(=O)[nH]c12 [I-94] | 0.1 to 1 | 70 to 90 | 0.1 to 1 | 70 to 90 | –
3 | CC(C)(C)NC[C@H](O)c1cccc2[nH]nc(C(N)=O)c12 [I-95] | 0.1 to 1 | 70 to 90 | 0.1 to 1 | 50 to 70 | –
4 | CC1(NC[C@H](O)c2cccc3[nH]nc(Cl)c23)CCC1 [I-96] | < 0.01 | 70 to 90 | < 0.01 | > 90 | –
5 | O[C@@H](CNC1CCC1)c1cccc2[nH]nc(Cl)c12 [I-97] | 0.01 to 0.1 | 70 to 90 | < 0.01 | > 90 | –
6 | O[C@@H](CNC1CC1)c1cccc2[nH]nc(Cl)c12 [I-98] | 0.01 to 0.1 | 70 to 90 | < 0.01 | 70 to 90 | –
7 | CC(C)CNC[C@H](O)c1cccc2[nH]nc(Cl)c12 [I-99] | 0.1 to 1 | 70 to 90 | 0.01 to 0.1 | 70 to 90 | –
8 | CC1(NC[C@H](O)c2cccc3[nH]nc(Cl)c23)CC1 [I-100] | < 0.01 | 70 to 90 | < 0.01 | – | > 90
9 | CC(C)NC[C@H](O)c1cccc2[nH]nc(Cl)c12 [I-101] | < 0.01 | > 90 | < 0.01 | > 90 | –
10 | CC(C)(C)NC[C@H](O)c1ccc(OC(F)F)c2[nH]ncc12 [I-102] | 0.1 to 1 | 50 to 70 | < 0.01 | – | < 50
11 | CC(C)(C)NC[C@H](O)c1cc(C2CC2)cc2[nH]ncc12 [I-103] | > 1 | 50 to 70 | 0.01 to 0.1 | – | 50 to 70
12 | CC(C)c1cc([C@@H](O)CNC(C)(C)C)c2cn[nH]c2c1 [I-104] | > 1 | 70 to 90 | 0.1 to 1 | – | 70 to 90
13 | CCc1cc([C@@H](O)CNC(C)(C)C)c2cn[nH]c2c1 [I-105] | > 1 | < 50 | 0.1 to 1 | – | < 50
14 | CC(C)(C)NC[C@H](O)c1cc(OC(F)F)cc2[nH]ncc12 [I-106] | 0.1 to 1 | 70 to 90 | 0.01 to 0.1 | – | 50 to 70
15 | CC1(NC[C@H](O)c2cccc3[nH]cc(F)c23)CC1 [I-107] | < 0.01 | > 90 | < 0.01 | – | > 90
16 | O[C@@H](CNC1CC1)c1cccc2[nH]cc(F)c12 [I-108] | 0.01 to 0.1 | > 90 | 0.01 to 0.1 | – | > 90
17 | CC(C)(CO)NC[C@H](O)c1cccc2[nH]cc(F)c12 [I-109] | 0.01 to 0.1 | > 90 | 0.01 to 0.1 | > 90 | –
18 | CC1(NC[C@H](O)c2cccc3[nH]cc(F)c23)CCC1 [I-110] | < 0.01 | > 90 | < 0.01 | – | > 90
19 | CC(C)CNC[C@H](O)c1cccc2[nH]cc(F)c12 [I-111] | 0.01 to 0.1 | > 90 | 0.01 to 0.1 | – | 70 to 90
20 | CC(C)NC[C@H](O)c1cccc2[nH]cc(F)c12 [I-112] | < 0.01 | > 90 | < 0.01 | – | > 90
21 | O[C@@H](CNC1CCC1)c1cccc2[nH]cc(F)c12 [I-113] | < 0.01 | > 90 | 0.01 to 0.1 | – | > 90
22 | CC(C)(C)NC[C@H](O)c1cccc2[nH]nc(Cl)c12 [I-114] | < 0.01 | > 90 | < 0.01 | – | > 90
23 | Cc1c(Cl)[nH]c2cccc([C@@H](O)CNC(C)(C)C)c12 [I-115] | > 1 | 70 to 90 | 0.1 to 1 | – | 70 to 90
24 | CC(C)(CO)NC[C@H](O)c1ccc(Cl)c2[nH]ncc12 [I-116] | 0.01 to 0.1 | 70 to 90 | < 0.01 | – | 70 to 90

Row | SMILES | EC50 (B1-AR) [µM] | Emax (B1-AR) [%] | EC50 (B2-AR; CHO-K1 cells) [µM] | Emax (B2-AR; CHO-K1 cells) [%] | Emax (B2-AR; CHO-K1, CHO-K1 cells) [%]
25 | CC(C)CNC[C@H](O)c1ccc(Cl)c2[nH]ncc12 [I-117] | 0.01 to 0.1 | 50 to 70 | 0.01 to 0.1 | 70 to 90 | –
26 | CC1(NC[C@H](O)c2ccc(Cl)c3[nH]ncc23)CCC1 [I-118] | < 0.01 | 70 to 90 | < 0.01 | – | 70 to 90
27 | O[C@@H](CNC1CCC1)c1ccc(Cl)c2[nH]ncc12 [I-119] | < 0.01 | 70 to 90 | < 0.01 | 70 to 90 | –
28 | CC1(NC[C@H](O)c2ccc(Cl)c3[nH]ncc23)CC1 [I-120] | < 0.01 | 70 to 90 | < 0.01 | – | 70 to 90
29 | O[C@@H](CNC1CC1)c1ccc(Cl)c2[nH]ncc12 [I-121] | < 0.01 | 50 to 70 | < 0.01 | – | 70 to 90
30 | CC(C)NC[C@H](O)c1ccc(Cl)c2[nH]ncc12 [I-122] | < 0.01 | 70 to 90 | < 0.01 | – | 70 to 90
31 | CC(C)(C)NC[C@H](O)c1cc(C(F)F)cc2[nH]ncc12 [I-123] | > 1 | 70 to 90 | 0.1 to 1 | – | 70 to 90
32 | CC(C)CNC[C@H](O)c1ccc2[nH]cc(F)c2c1 [I-124] | > 1 | 70 to 90 | 0.1 to 1 | – | > 90
33 | CC(C)(C)NC[C@H](O)c1cccc2[nH]nc(C3CC3)c12 [I-125] | 0.1 to 1 | 70 to 90 | 0.1 to 1 | 70 to 90 | –
34 | CC1(NC[C@H](O)c2cccc3[nH]nc(F)c23)CC1 [I-126] | < 0.01 | 70 to 90 | < 0.01 | – | > 90
35 | O[C@@H](CNC1CCC1)c1cccc2[nH]ncc12 [I-127] | < 0.01 | > 90 | < 0.01 | – | > 90
36 | CC1(NC[C@H](O)c2cccc3[nH]ncc23)CCC1 [I-128] | < 0.01 | > 90 | < 0.01 | > 90 | –
37 | CC1(NC[C@H](O)c2cccc3[nH]ncc23)CC1 [I-129] | < 0.01 | > 90 | < 0.01 | > 90 | –
38 | CC1(NC[C@H](O)c2cccc3[nH]nc(F)c23)CCC1 [I-130] | < 0.01 | > 90 | < 0.01 | > 90 | –
39 | CC(C)(C)NC[C@H](O)c1cc(F)cc2[nH]cnc12 [I-131] | 0.01 to 0.1 | > 90 | 0.01 to 0.1 | – | 70 to 90
40 | CC(C)(CO)NC[C@H](O)c1cccc2[nH]nc(F)c12 [I-132] | < 0.01 | > 90 | < 0.01 | – | > 90
41 | CC(C)CNC[C@H](O)c1cccc2[nH]ncc12 [I-133] | 0.01 to 0.1 | 70 to 90 | < 0.01 | – | > 90
42 | O[C@@H](CNC1CC1)c1cccc2[nH]ncc12 [I-134] | < 0.01 | 70 to 90 | < 0.01 | > 90 | –
43 | Cc1cc([C@@H](O)CNC2CC2)c2cn[nH]c2c1 [I-135] | < 0.01 | 70 to 90 | < 0.01 | 70 to 90 | –
44 | Cc1cc([C@@H](O)CNC2CCC2)c2cn[nH]c2c1 [I-136] | < 0.01 | > 90 | < 0.01 | – | > 90
45 | O[C@@H](CNC1CCC1)c1ccc(F)c2[nH]ncc12 [I-137] | < 0.01 | 70 to 90 | < 0.01 | > 90 | –
46 | CC(C)CNC[C@H](O)c1cccc2[nH]nc(F)c12 [I-138] | 0.01 to 0.1 | 70 to 90 | < 0.01 | > 90 | –
47 | CC(C)NC[C@H](O)c1cccc2[nH]nc(F)c12 [I-139] | < 0.01 | > 90 | < 0.01 | > 90 | –
48 | O[C@@H](CNC1CC1)c1cccc2[nH]nc(F)c12 [I-140] | < 0.01 | > 90 | < 0.01 | > 90 | –

From patent US20240270701A1, “BETA ADRENERGIC AGONIST AND METHODS OF USING THE SAME” (Curasen Therapeutics, Inc., priority 2021, published 2024)
